Experiment: Human HepG2 cell viability assay in 384 well format
Type: toxicity, cell-based
Parameters: dose 125 nL, time 70.5 hour; cytotoxicity at 70.5 h: concentration not given beside the values
Conditions: HepG2 cells, read-out: Inhibition

Structure (SMILES)	cytotoxicity at 70.5 h [%]
Cc1nc(NCc2ccc(C)o2)cc(C(=O)N2CCOCC2)n1	-9.84
Cn1cc(C(=O)N2CCCCC2CCc2ccccc2)cn1 (configuration not stated)	-10.6
CN(Cc1ccccc1CN1CCCC1)C(=O)c1c(O)cccc1O	7.79
Cc1nc(CN2CCN(C(=O)CCc3cccnc3)CC2)no1	16.4
Cc1nc(CN2CCCC(N(C)c3ccc(C#N)cn3)C2)no1 (configuration not stated)	-2.54
Cc1nc(CNC2CCc3ncnn3C2)oc1C (configuration not stated)	-5.86
CS(=O)(=O)N1CCC(CNc2cc(Cl)ccc2C#N)CC1	-6.86
Cc1oc(-c2ccsc2)nc1CNC(C)Cn1cccn1 (configuration not stated)	11.6
COCC(C)(O)CNC(=O)c1cc(-c2ccc(F)cc2)nn1C (configuration not stated)	1.82
COCCNC(=O)[C@H]1CN(Cc2cccs2)C[C@H]2OCC[C@@H]12	25.4
Cc1cnn(-c2cncc(C(N)=O)c2)c1	-5.78
O=C(NCc1cccc(-n2cncn2)c1)NCC(C1CC1)C1CC1	-5.02
CNc1nc(CNC(=O)Nc2cccc(OC)c2)cs1	-0.727
Cc1n[nH]c2c1C(c1cc(F)cc(F)c1)SCC(=O)N2 (configuration not stated)	17.9
CCCSCC(=O)N1CCN(c2ccc(OC)cc2)CC1C (configuration not stated)	-2.57
c1ccc(-n2cncn2)c(CNCCn2cccn2)c1	10.2
CCn1cc(S(=O)(=O)N2CCN(S(=O)(=O)c3ccc(Br)s3)CC2)c(C)n1	-9.33
COCC(c1cccc(C(F)(F)F)c1)N(C)C(=O)c1ccccn1 (configuration not stated)	-4.66
CN1CCCCC1CCC(=O)NCCSc1cnn[nH]1 (configuration not stated)	-2.59
COC(=O)c1cc(NS(=O)(=O)c2cn(C)cn2)c(F)cc1F	-2.67
CCN(CC)c1ncnc2c1CCN(c1ccc(C)nn1)CC2	-1.7

Structure (SMILES)	cytotoxicity at 70.5 h [%]
N#CCC(=O)NCc1nnc2n1CCN(Cc1nccs1)C2	-4.61
Cc1nc(C)n(CC2CN(CCCc3ccccc3)CCO2)n1 (configuration not stated)	-4.71
CC(C)(C)OC(=O)NC1(c2noc(-c3ccoc3)n2)CCC1	-6.71
CCN1CCOC(CNCc2cnc(N(CC)CC)s2)C1 (configuration not stated)	5.52
Cc1cnn(CC2CCCCN2C(=O)Cc2c(C)noc2C)c1 (configuration not stated)	-9.25
CCNC(=O)CN(CC)C(=O)c1csc(Cc2ccccc2F)n1	-13.1
O=C(Nc1ccccc1CCO)c1cccc(CN2CC[C@H](O)C2)c1	-8.22
Cc1ncsc1CN1C[C@H](C(=O)NC2CCCC2)[C@@H]2CCO[C@@H]2C1	-1.79
CCc1nccn1C1CCCN(C(=O)C2=NN(C)C(=O)CC2)C1 (configuration not stated)	-8.58
Cc1csc(CNC(=O)NCCc2ccc3c(c2)OCCO3)n1	20.8
CCN(CC)C(CNCc1ccc(C)o1)c1ccco1 (configuration not stated)	-11.7
CN(CCOc1ccccc1F)C1CCOC1=O (configuration not stated)	-1.46
Cc1cnn(C2CCCN(C(=O)c3ccc(O)nc3)C2)c1 (configuration not stated)	-12.4
Cc1cc(C(=O)NCc2ccnc(N3CCN(C)CC3)c2)no1	-0.337
COCc1ncc(-c2nccn2CCn2cnnc2)cn1	-2.42
O=C(c1ccco1)N1CCCC2(CN(Cc3ccsc3)CCO2)C1 (configuration not stated)	-5.26
CNc1nccnc1C1CCN(C(C)C)CC1	12.4
O=C(NCc1cccnc1N1CCCCC1)c1ccc2[nH]nnc2c1	41.6
COc1cc(OC)cc(C2(O)CCN(Cc3nc(C)c(C)o3)CC2)c1	0.268
CSCc1ccc(N2CCC(C(O)CC(C)C)CC2)nc1 (configuration not stated)	6.44
Cc1n[nH]c(C)c1C1CCCN1C(=O)NCC(=O)Nc1ccccc1 (configuration not stated)	6.46

Structure (SMILES)	cytotoxicity at 70.5 h [%]
Cn1nnc2c1C(COCC1CC1)CN(C(=O)Cc1ccccn1)C2 (configuration not stated)	-2.19
Cc1nc(C2CCCN2CC(=O)N(Cc2ccsc2)C2CC2)no1 (configuration not stated)	-5.17
O=C(c1ncccn1)N1C[C@@H]2COC[C@]2(COCc2cccnc2)C1	-5.13
CCS(=O)(=O)N1CCCCC1c1nc(C(C)C)no1 (configuration not stated)	7.03
COc1ccc(CNc2cccnc2-n2cccn2)cc1OC	-14.2
O=C(CN1CCS(=O)(=O)CC1)NC1CCCOc2ccccc21 (configuration not stated)	-3.91
Cc1cc(-c2nc(-c3cccc(CN4CCOCC4)c3)no2)no1	0.395
CCc1nc(C2CCCN2Cc2nc3ccccc3o2)no1 (configuration not stated)	-17.9
CCc1csc(C2CCCN(C(=O)c3ccnc(N(C)C)c3)C2)n1 (configuration not stated)	19.9
Cc1nn(C)c(C)c1NC(=O)CN1CCCC1c1noc(C2CC2)n1 (configuration not stated)	8.6
COc1ncnc(N(C)C)c1NC(=O)Cc1cc(F)ccc1F	-5.92
Cc1cc(C)nc(N2CCCC2c2[nH]ncc2C(=O)N(C)C)n1 (configuration not stated)	-3.67
Cc1csc(CCNC(=O)Nc2cc(C(F)(F)F)c[nH]c2=O)n1	-1.34
Cc1ccc(N2CC[C@H]3CN(C(=O)c4ccn(C)n4)C[C@H]3C2)nn1	-7.56
CS(=O)(=O)NC(=O)c1ccn(-c2ccc(Cl)c(Cl)c2)n1	-3.09
Cc1nccn1-c1ccc(C(=O)NCC(F)(F)F)nn1	-1.99
COc1ccc(C2(C(=O)NCc3c(C)ncc4c3CCNC4)CC2)cc1	-5.87
CC(OCC1CC1)C(=O)Nc1ncn(CC(=O)N2CCCCCC2)n1 (configuration not stated)	10.7
CN(C)C(=O)N1CCn2nc(CNC(=O)CCC(F)(F)F)cc2C1	-3.05
COCCN(C)CCN1CC2(CCN(C(=O)C3CCOC3)CC2)OC1=O (configuration not stated)	17.4
CC(C)Cc1cc(C(=O)NCCN2CCCS2(=O)=O)[nH]n1	-10.6

Structure (SMILES)	cytotoxicity at 70.5 h [%]
Cn1cc(C2=NOC(C(=O)NC3(c4cccc(F)c4)CCCC3)C2)cn1 (configuration not stated)	-4.3
C[C@H]1CN(C(=O)c2ccc[nH]2)C[C@@]12CCN(c1ccsc1)C2=O	-5.02
COc1ccc(C(=O)N2CCC3(CCC(=O)N(C(C)C)C3)CC2)cc1C	-6.63
CN1CCN([C@@H]2CCN(C3CCOC3)[C@H]2Cc2cnn(C)c2)CC1 (some centres not stated)	-12.4
CC(Oc1ccc(F)cc1)C(=O)N(CC(N)=O)C1CCCC1 (configuration not stated)	0.347
CN(C)c1cc2c(nn1)CCN(C(=O)C1Cc3ccccc3S1)C2 (configuration not stated)	-8.43
Cc1ncsc1C(=O)NCC1CCC2(CCNCC2)CO1 (configuration not stated)	-6.8
Cc1cc2cccc(C(=O)N3CCOC(CCN(C)C)C3)c2o1 (configuration not stated)	-17.3
CS(=O)(=O)c1cn[nH]c1C1CCCN(C(=O)CN2CCOCC2)C1 (configuration not stated)	-5.31
OCC1(O)CCN(c2ccnc3c(C(F)(F)F)cccc23)CC1	-3.41
Cc1cc(S(C)(=O)=O)c(C)c(S(=O)(=O)N2CCCC(C)C2)c1 (configuration not stated)	-7.71
CCCSCC(=O)NS(=O)(=O)c1ccc2c(c1)OCCO2	2.12
COc1ccc(NCc2c[nH]nc2-c2cccnc2)cc1	8.67
Cn1nc(CN2CCCCC2)c2c1CN(C(=O)c1ccccc1)C2	23.3
CO[C@@]1(C)C[C@@H](O)C12CCN(C(=O)c1ccccc1C(C)=O)CC2	-7.26
Cc1nc(C)n(CC2CN(Cc3cccs3)Cc3nccn3C2)n1 (configuration not stated)	-0.931
CSCc1noc(CN2CCC3(CC2)CC(=O)N(CC=C(C)C)C3)n1	-11.8
Cc1cnc(C(=O)N2Cc3ccccc3OC3(CCOCC3)C2)cn1	1.74
CC(C)N1CCC(Cc2cnc(-c3cccc(C(=O)O)c3)cn2)C1 (configuration not stated)	-19.1
